Counter-ions that a name gives are not always drawn. Like-named read-outs stand apart in the source and are kept apart here.
Experiments:
[1] = system: iCell endothelial cells (human iPSC-derived ECs); assay: Tube formation (tubulogenesis) assay in iCell endothelial cells, 18 h; type: cell-based; details: Homo sapiens, Endothelial cell, iPSC-EC tube formation, 18 hr; for activity at 0.1 µM: 0.10 µM; for minimal effective concentration: top concentration 100.00 µM
In short: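 iCell ECs (passages 1–5) seeded 7,500 cells/well on reduced-growth-factor Geltrex in starvation medium, exposed overnight at 37°C to compounds in triplicate concentration–response (0.5% DMSO vehicle). Calcein AM staining, 4× imaging, angiogenesis image analysis; readouts normalized to vehicle, four-parameter logistic fit, POD at 1 SD of vehicle; 100 μM assigned NOAEL if no response.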

HUVECs = assay: High-content imaging cytotoxicity in HUVECs, 24 h; type: cell-based, human; details: Homo sapiens, HUVEC, 24 h, HUVECs; for viability at 0.01 µM / activity at 0.01 µM / viability at 0.1 µM / activity at 0.1 µM / viability at 1 µM / activity at 1 µM / viability at 10 µM / activity at 10 µM / viability at 100 µM / activity at 100 µM: 0.00 µM = 100.00; for viability at 0.1 µM / activity at 0.1 µM: 0.10 µM; for minimal effective concentration: top concentration 100.00 µM
In short: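 HUVECs (passages 1–5) grown to monolayer over 3–5 d, then exposed 24 h at 37°C, 5% CO2; stained with Hoechst 33342, MitoTracker Orange and calcein AM and imaged at 10×. Readouts normalized to 0.5% DMSO vehicle, four-parameter logistic fit; POD at one-SD cutoff, 100μM assigned when no response.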

[2] = 0.00 µM control = 100.00, read-out: endo.mtl.18hr
[3] = 0.00 µM control = 100.00, read-out: endo.tlps.18hr
[4] = 0.00 µM control = 100.00, read-out: endo.tta.18hr
[5] = 0.00 µM control = 100.00, read-out: endo.ttl.18hr
[6] = 24 hr, read-out: huvec.cyto.24hr
[7] = 24 hr, read-out: huvec.mito.24hr
[8] = 24 hr, read-out: huvec.mitoint.24hr
[9] = 24 hr, read-out: huvec.nma.24hr
[10] = 24 hrs, read-out: huvec.tc.24hrs

With `O=S(=O)(O)Oc1cc(-c2ccccc2)ccc1Cl` [3-yl PCB 3 sulfate] the activity at 0.01 µM [1, 2] was 102%, the activity at 0.01 µM [1, 3] was 104% and the activity at 0.01 µM [1, 4] was 152%. The activity at 0.01 µM [1, 5] was 139%, the activity at 0.1 µM [1, 2] was 88.6% and the activity at 0.1 µM [1, 3] was 127%. It also gave an activity at 0.1 µM [1, 4] of 93.5%, an activity at 0.1 µM [1, 5] of 88.4% and an activity at 1 µM [1, 2] of 92.1%. For the same molecule, the activity at 1 µM [1, 3] was 89.4%, the activity at 1 µM [1, 4] was 106% and the activity at 1 µM [1, 5] was 101%. The activity at 10 µM [1, 2] was 75.1%, the activity at 10 µM [1, 3] was 68.7% and the activity at 10 µM [1, 4] was 61.4%. It also gave an activity at 10 µM [1, 5] of 59.2%, an activity at 100 µM [1, 2] of 83.7% and an activity at 100 µM [1, 3] of 46.7%. The activity at 100 µM [1, 4] was 78.8%, the activity at 100 µM [1, 5] was 79% and the minimal effective concentration ([1]; read-out: endo.mtl.18hr POD) was 100 µM. It also gave a minimal effective concentration ([1]; read-out: endo.tlps.18hr POD) of 6.75 µM, a minimal effective concentration ([1]; read-out: endo.tta.18hr POD) of 100 µM and a minimal effective concentration ([1]; read-out: endo.ttl.18hr POD) of 100 µM. The viability at 0.01 µM (HUVECs; [6]) was 78.2%, the activity at 0.01 µM (HUVECs; [7]) was 77.8% and the activity at 0.01 µM (HUVECs; [8]) was 93.6%. It also gave an activity at 0.01 µM (HUVECs; [9]) of 96.6%, a viability at 0.1 µM (HUVECs; [6]) of 95.5% and an activity at 0.1 µM (HUVECs; [7]) of 95.5%. For the same molecule, the activity at 0.1 µM (HUVECs; [8]) was 110%, the activity at 0.1 µM (HUVECs; [9]) was 102% and the viability at 1 µM (HUVECs; [6]) was 95.1%. It also gave an activity at 1 µM (HUVECs; [7]) of 94%, an activity at 1 µM (HUVECs; [8]) of 93.8% and an activity at 1 µM (HUVECs; [9]) of 95.5%. It also gave a viability at 10 µM (HUVECs; [6]) of 91.1%, an activity at 10 µM (HUVECs; [7]) of 89.7% and an activity at 10 µM (HUVECs; [8]) of 80.7%. The activity at 10 µM (HUVECs; [9]) was 93.3%, the viability at 100 µM (HUVECs; [6]) was 98.8% and the activity at 100 µM (HUVECs; [7]) was 97.9%. For the same molecule, the activity at 100 µM (HUVECs; [8]) was 105%, the activity at 100 µM (HUVECs; [9]) was 96% and the minimal effective concentration (HUVECs; 24 hr, read-out: huvec.cyto.24hr POD) was 100 µM. It also gave a minimal effective concentration (HUVECs; 24 hr, read-out: huvec.mito.24hr POD) of 100 µM, a minimal effective concentration (HUVECs; 24 hr, read-out: huvec.mitoint.24hr POD) of 100 µM and a minimal effective concentration (HUVECs; 24 hr, read-out: huvec.nma.24hr POD) of 100 µM. For the same molecule, the viability at 0.01 µM (HUVECs; [10]) was 78.4%, the viability at 0.1 µM (HUVECs; [10]) was 95.5% and the viability at 1 µM (HUVECs; [10]) was 95.1%. The viability at 10 µM (HUVECs; [10]) was 91.1%, the viability at 100 µM (HUVECs; [10]) was 98.8% and the minimal effective concentration (HUVECs; 24 hrs, read-out: huvec.tc.24hrs POD) was 100 µM.
